In article PMC10757358 (The Journal of steroid biochemistry and molecular biology, 2023):

How the values were obtained:
[1] = biological target: T1, CYP11A1 (Homo sapiens, UniProt P05108); test: biochemical
[2] = test system: NCI-H295R human adrenocortical cancer cell line; conditions: NCI-H295R cells
[3] = test system: CYP11B2; conditions: read-out: reported IC50, CYP11B2; in-vitro studies; cited from earlier work
[4] = biological target: T1, CYP11A1
[5] = test system: CYP11B1; conditions: read-out: reported IC50, CYP11B1; in-vitro studies; cited from earlier work
[6] = biological target: T2, CYP11B1 (Homo sapiens, UniProt P15538); test: biochemical
T2 sequence (P15538 25-503): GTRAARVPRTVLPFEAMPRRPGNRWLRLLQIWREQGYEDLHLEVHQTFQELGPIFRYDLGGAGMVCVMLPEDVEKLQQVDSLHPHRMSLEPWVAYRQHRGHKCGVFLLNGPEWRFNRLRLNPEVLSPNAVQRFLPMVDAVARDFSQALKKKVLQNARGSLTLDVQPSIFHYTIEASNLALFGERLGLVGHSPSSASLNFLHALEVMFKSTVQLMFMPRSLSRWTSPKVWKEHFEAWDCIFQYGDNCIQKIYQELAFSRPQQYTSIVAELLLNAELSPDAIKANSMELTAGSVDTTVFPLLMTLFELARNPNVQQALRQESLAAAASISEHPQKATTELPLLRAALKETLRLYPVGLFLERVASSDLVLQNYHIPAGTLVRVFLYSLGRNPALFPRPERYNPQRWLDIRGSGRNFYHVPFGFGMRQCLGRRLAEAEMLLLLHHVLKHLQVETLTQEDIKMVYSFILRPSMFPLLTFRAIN

[7] = biological target: T3, CYP11B2 (Homo sapiens, UniProt P19099); test: biochemical
T3 sequence (P19099 25-503): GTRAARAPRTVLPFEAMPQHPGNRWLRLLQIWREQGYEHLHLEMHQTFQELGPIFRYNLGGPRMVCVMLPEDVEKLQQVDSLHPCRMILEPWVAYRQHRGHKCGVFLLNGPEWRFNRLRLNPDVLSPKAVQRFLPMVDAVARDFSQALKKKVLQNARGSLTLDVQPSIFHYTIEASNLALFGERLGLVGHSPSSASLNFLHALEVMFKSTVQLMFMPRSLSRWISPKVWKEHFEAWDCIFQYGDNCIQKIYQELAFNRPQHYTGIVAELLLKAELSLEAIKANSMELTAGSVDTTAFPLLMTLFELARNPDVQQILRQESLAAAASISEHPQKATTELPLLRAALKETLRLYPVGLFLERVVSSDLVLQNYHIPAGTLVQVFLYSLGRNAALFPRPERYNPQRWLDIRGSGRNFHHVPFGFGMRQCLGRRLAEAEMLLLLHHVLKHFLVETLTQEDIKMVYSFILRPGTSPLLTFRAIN

T1 sequence (P05108 40-521): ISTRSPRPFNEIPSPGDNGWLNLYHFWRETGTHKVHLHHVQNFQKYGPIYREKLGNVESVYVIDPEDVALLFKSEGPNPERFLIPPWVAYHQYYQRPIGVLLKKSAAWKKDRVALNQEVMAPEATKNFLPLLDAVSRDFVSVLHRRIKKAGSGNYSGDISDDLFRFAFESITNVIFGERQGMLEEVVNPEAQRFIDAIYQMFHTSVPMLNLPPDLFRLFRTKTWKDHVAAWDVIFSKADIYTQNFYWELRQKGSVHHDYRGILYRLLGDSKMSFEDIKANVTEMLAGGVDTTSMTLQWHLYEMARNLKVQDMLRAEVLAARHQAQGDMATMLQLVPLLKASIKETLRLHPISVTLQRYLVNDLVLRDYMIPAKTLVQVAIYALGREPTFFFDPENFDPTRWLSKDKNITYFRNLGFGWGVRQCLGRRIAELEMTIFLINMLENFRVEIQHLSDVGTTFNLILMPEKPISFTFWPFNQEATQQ

SMILES	Kd [1] [nM]	aldosterone production, % of baseline ([2]; 0-1000 nM LCI699, 24 h) [%]	androstenedione level ([2]; 0-1000 nM LCI699, 24 h)	corticosterone, % of the baseline ([2]; 0-1000 nM LCI699, 24 h) [%]	cortisol production, % of baseline ([2]; 0-1000 nM LCI699, 24 h) [%]	11-deoxycortisol level ([2]; higher concentrations of LCI699, changes did not reach statistical significance)	IC50 [3] [nM]	inhibition [4] [%]	IC50 [5] [nM]	Kd [6] [nM]	Kd [7] [nM]
N#Cc1ccc([C@H]2CCc3cncn32)c(F)c1 [LCI699, Osilodrostat]	18800	2 ± 3	remained unchanged	1 ± 2	13 ± 4	appeared to increase	[…]	[…]	[…]	–	–
C[C@]12CC[C@H]3[C@@H](CCC4=CC(=O)CC[C@@]43C)[C@@H]1CC[C@@H]2C(=O)CO [DOC, 11-deoxycorticosterone]	–	–	–	–	–	–	–	–	–	420	270
